Our source for the activity coefficient values is the NIST ThermoML archive (doi:10.1021/je060033f).

Molecules are shown by their SMILES. ± gives the expanded uncertainty stated by the source.

The data set is described as follows: activity coefficient (dimensionless); of the first substance listed, at infinite dilution; xn = mol fraction of the nth substance listed. Conditions: 323.15 K; 101 kPa; Liquid; Chromatography; x1 = 0.
Take `Cc1ccccc1` [toluene] + CCCCCCCCCC[n+]1ccn(CCCB(O)O)c1.[Br-]: the activity coefficient came to 1.8 ± 0.12. For the compound `CCO` [ethanol] + C=CC[n+]1ccn(CCCCCCCCCC)c1.[Br-], the activity coefficient was found to be 0.26 ± 0.03. The value for `CC(C)CO` [2-methyl-1-propanol] + C=CC[n+]1ccn(CCCCCCCCCC)c1.[Br-] was 0.29 ± 0.03; that for `ClC(Cl)Cl` [trichloromethane] + C=CC[n+]1ccn(CCCCCCCCCCCC)c1.[Br-] was 0.12 ± 0.03; that for `CCC[N+](=O)[O-]` [1-nitropropane] + C=CC[n+]1ccn(CCCCCCCCCCCC)c1.[Br-] was 1.12 ± 0.07. Regarding `C#CCCCC` [1-hexyne] + C=CC[n+]1ccn(CCCCCCCCCCCC)c1.[Br-], the activity coefficient was 1.56 ± 0.1.

Regarding `c1ccsc1` [thiophene] + C=CCn1cc[n+](C)c1.[Br-], the activity coefficient worked out at 1.48 ± 0.1.

In the case of `c1ccccc1` [benzene] + C=CCn1cc[n+](C)c1.[Br-], the activity coefficient is 3.6 ± 0.25. The value for `CC#N` [acetonitrile] + C=CC[n+]1ccn(CCCCCCCCCCCC)c1.[Br-] was 0.86 ± 0.06; that for `CCCCCCCC` [octane] + C=CC[n+]1ccn(CCCCCCCCCC)c1.[Br-] was 14.3 ± 0.98. The value for `CCO` [ethanol] + C=CC[n+]1ccn(CCCCCCCC)c1.[Br-] was 0.27 ± 0.03; that for `C=CCCCC` [hex-1-ene] + C=CC[n+]1ccn(CCCCCCCCCCCC)c1.[Br-] was 3.47 ± 0.24. With `CCCCCCC` [heptane] + C=CCn1cc[n+](C)c1.[Br-], the activity coefficient amounted to 49.6 ± 3.4. `C#CCCCC` [1-hexyne] + CCCCCCCCCC[n+]1ccn(CCCB(O)O)c1.[Br-]: the activity coefficient was 1.77 ± 0.12. Regarding `CCC(C)=O` [butanone] + CCCCCCCCCCCC[n+]1ccn(CCCB(O)O)c1.[Br-], the activity coefficient is 1.33 ± 0.09. The value for `CO` [methanol] + C=CCn1cc[n+](C)c1.[Br-] was 0.18 ± 0.03; that for `Cc1ccccc1` [toluene] + C=CC[n+]1ccn(CCCCCCCCCC)c1.[Br-] was 1.85 ± 0.12; that for `c1ccsc1` [thiophene] + CCCCCCCC[n+]1ccn(CCCB(O)O)c1.[Br-] was 1.2 ± 0.08.

In the case of `CCC[N+](=O)[O-]` [1-nitropropane] + CCCCCCCC[n+]1ccn(CCCB(O)O)c1.[Br-], the activity coefficient amounted to 1.58 ± 0.1. For the compound `ClC(Cl)(Cl)Cl` [tetrachloromethane] + C=CCn1cc[n+](C)c1.[Br-], the activity coefficient came to 1.54 ± 0.1. The value for `C#CCCCCC` [1-heptyne] + CCCCCCCCCC[n+]1ccn(CCCB(O)O)c1.[Br-] was 2.22 ± 0.15; that for `CCCO` [propan-1-ol] + C=CC[n+]1ccn(CCCCCCCC)c1.[Br-] was 0.28 ± 0.03; that for `CCCCCCC` [heptane] + CCCCCCCCCC[n+]1ccn(CCCB(O)O)c1.[Br-] was 7.04 ± 0.48. The value for `CCO` [ethanol] + C=CC[n+]1ccn(CCCCCCCCCCCC)c1.[Br-] was 0.23 ± 0.03; that for `C1COCCO1` [1,4-dioxane] + C[n+]1ccn(CCCB(O)O)c1.[Br-] was 11.2 ± 0.77. On to `Cc1ccccc1C` [1,2-dimethylbenzene] + C=CC[n+]1ccn(CCCCCCCCCC)c1.[Br-], for which the activity coefficient amounted to 2.34 ± 0.16.

In the case of `CCC[N+](=O)[O-]` [1-nitropropane] + C[n+]1ccn(CCCB(O)O)c1.[Br-], the activity coefficient worked out at 15.8 ± 1.1. As to `CCCCCCCCC` [nonane] + CCCCCCCCCC[n+]1ccn(CCCB(O)O)c1.[Br-], the activity coefficient is 9.92 ± 0.68.

For the compound `C=CCCCC` [hex-1-ene] + C=CC[n+]1ccn(CCCCCCCCCC)c1.[Br-], the activity coefficient is 5.89 ± 0.4. Turning to `C=CCCCC` [hex-1-ene] + CCCCCCCCCCCC[n+]1ccn(CCCB(O)O)c1.[Br-], the activity coefficient is 3.6 ± 0.25. On to `C#CCCCC` [1-hexyne] + CCCCCCCC[n+]1ccn(CCCB(O)O)c1.[Br-], for which the activity coefficient is 2.77 ± 0.19. Regarding `CCC(C)=O` [butanone] + C=CCn1cc[n+](C)c1.[Br-], the activity coefficient was 2.68 ± 0.18.

With `C#CCCCCC` [1-heptyne] + CCCCCCCC[n+]1ccn(CCCB(O)O)c1.[Br-], the activity coefficient was 3.7 ± 0.25. With `CCCCCC` [hexane] + CCCCCCCC[n+]1ccn(CCCB(O)O)c1.[Br-], the activity coefficient is 18.2 ± 1.2. As to `CCC(C)=O` [butanone] + C=CC[n+]1ccn(CCCCCCCC)c1.[Br-], the activity coefficient is 1.46 ± 0.1. The value for `CCCO` [propan-1-ol] + C=CC[n+]1ccn(CCCCCCCCCCCC)c1.[Br-] was 0.23 ± 0.03. `c1ccccc1` [benzene] + CCCCCCCCCCCC[n+]1ccn(CCCB(O)O)c1.[Br-]: the activity coefficient amounted to 1.21 ± 0.08. The value for `CCCCCCCC` [octane] + C=CC[n+]1ccn(CCCCCCCCCCCC)c1.[Br-] was 6.37 ± 0.43. The value for `Cc1cccc(C)c1` [1,3-dimethylbenzene] + CCCCCCCCCCCC[n+]1ccn(CCCB(O)O)c1.[Br-] was 1.98 ± 0.13; that for `CO` [methanol] + CCCCCCCCCC[n+]1ccn(CCCB(O)O)c1.[Br-] was 0.05; that for `C#CCCCC` [1-hexyne] + CCCCCCCCCCCC[n+]1ccn(CCCB(O)O)c1.[Br-] was 1.86 ± 0.13. The value for `Cc1cccc(C)c1` [1,3-dimethylbenzene] + C=CCn1cc[n+](C)c1.[Br-] was 11.1 ± 0.76; that for `ClC(Cl)Cl` [trichloromethane] + C=CC[n+]1ccn(CCCCCCCCCC)c1.[Br-] was 0.13 ± 0.03.

For `Cc1ccccc1C` [1,2-dimethylbenzene] + C[n+]1ccn(CCCB(O)O)c1.[Br-], the activity coefficient amounted to 44 ± 3. As for `C1COCCO1` [1,4-dioxane] + CCCCCCCCCC[n+]1ccn(CCCB(O)O)c1.[Br-], the activity coefficient was 1.38 ± 0.09. The value for `C#CCCCCC` [1-heptyne] + C=CC[n+]1ccn(CCCCCCCCCCCC)c1.[Br-] was 1.87 ± 0.13; that for `CC(C)O` [propan-2-ol] + C=CCn1cc[n+](C)c1.[Br-] was 0.69 ± 0.05; that for `CCc1ccccc1` [ethylbenzene] + C=CC[n+]1ccn(CCCCCCCC)c1.[Br-] was 2.56 ± 0.17. For the compound `ClC(Cl)(Cl)Cl` [tetrachloromethane] + C=CC[n+]1ccn(CCCCCCCC)c1.[Br-], the activity coefficient worked out at 0.82 ± 0.05.

As for `C=CCCCC` [hex-1-ene] + C=CC[n+]1ccn(CCCCCCCC)c1.[Br-], the activity coefficient was determined as 5.93 ± 0.4. With `CC#N` [acetonitrile] + C=CCn1cc[n+](C)c1.[Br-], the activity coefficient came out at 1.04 ± 0.07.

Consider `Cc1cccc(C)c1` [1,3-dimethylbenzene] + CCCCCCCCCC[n+]1ccn(CCCB(O)O)c1.[Br-], for which the activity coefficient stood at 2.11 ± 0.14. The value for `CC(C)O` [propan-2-ol] + C=CC[n+]1ccn(CCCCCCCCCCCC)c1.[Br-] was 0.29 ± 0.03. As for `Cc1ccccc1C` [1,2-dimethylbenzene] + CCCCCCCCCCCC[n+]1ccn(CCCB(O)O)c1.[Br-], the activity coefficient worked out at 1.78 ± 0.12. For the compound `ClCCl` [dichloromethane] + C=CC[n+]1ccn(CCCCCCCCCC)c1.[Br-], the activity coefficient amounted to 0.27 ± 0.03.

Turning to `c1ccccc1` [benzene] + C=CC[n+]1ccn(CCCCCCCCCC)c1.[Br-], the activity coefficient was 1.39 ± 0.09.

`C1COCCO1` [1,4-dioxane] + C=CCn1cc[n+](C)c1.[Br-]: the activity coefficient is 1.59 ± 0.11. In the case of `C1CCCCC1` [cyclohexane] + C=CC[n+]1ccn(CCCCCCCCCC)c1.[Br-], the activity coefficient was found to be 5.64 ± 0.38. Turning to `CC(C)CO` [2-methyl-1-propanol] + C=CCn1cc[n+](C)c1.[Br-], the activity coefficient came out at 0.33 ± 0.03.

Take `CCC[N+](=O)[O-]` [1-nitropropane] + C=CC[n+]1ccn(CCCCCCCCCC)c1.[Br-]: the activity coefficient was 1.14 ± 0.07.

`CO` [methanol] + C[n+]1ccn(CCCB(O)O)c1.[Br-]: the activity coefficient amounted to 0.05. The value for `CCCCCCCCC` [nonane] + C=CCn1cc[n+](C)c1.[Br-] was 65.6 ± 4.5. The value for `Cc1cccc(C)c1` [1,3-dimethylbenzene] + C=CC[n+]1ccn(CCCCCCCCCC)c1.[Br-] was 2.73 ± 0.19.

For `ClCCl` [dichloromethane] + CCCCCCCC[n+]1ccn(CCCB(O)O)c1.[Br-], the activity coefficient stood at 0.41 ± 0.03.

`c1ccccc1` [benzene] + C=CC[n+]1ccn(CCCCCCCCCCCC)c1.[Br-]: the activity coefficient was 1.08 ± 0.07. The value for `C1COCCO1` [1,4-dioxane] + C=CC[n+]1ccn(CCCCCCCCCC)c1.[Br-] was 1.39 ± 0.09; that for `CO` [methanol] + CCCCCCCC[n+]1ccn(CCCB(O)O)c1.[Br-] was 0.04; that for `CCCCCC` [hexane] + C=CC[n+]1ccn(CCCCCCCCCCCC)c1.[Br-] was 4.41 ± 0.3. The value for `Cc1ccccc1` [toluene] + CCCCCCCCCCCC[n+]1ccn(CCCB(O)O)c1.[Br-] was 3.36 ± 0.23. In the case of `Cc1ccccc1C` [1,2-dimethylbenzene] + CCCCCCCC[n+]1ccn(CCCB(O)O)c1.[Br-], the activity coefficient turned out to be 3.11 ± 0.21.

On to `ClCCl` [dichloromethane] + C=CC[n+]1ccn(CCCCCCCC)c1.[Br-], for which the activity coefficient was determined as 0.28 ± 0.03. The value for `CCC(C)=O` [butanone] + C=CC[n+]1ccn(CCCCCCCCCC)c1.[Br-] was 1.48 ± 0.1. The value for `CCCCCCC` [heptane] + C=CC[n+]1ccn(CCCCCCCCCCCC)c1.[Br-] was 5.32 ± 0.36. The value for `Cc1ccccc1` [toluene] + C[n+]1ccn(CCCB(O)O)c1.[Br-] was 38.8 ± 2.6.

As to `ClC(Cl)(Cl)Cl` [tetrachloromethane] + CCCCCCCC[n+]1ccn(CCCB(O)O)c1.[Br-], the activity coefficient is 1.23 ± 0.08.

As to `C=CCCCC` [hex-1-ene] + CCCCCCCC[n+]1ccn(CCCB(O)O)c1.[Br-], the activity coefficient came out at 8.32 ± 0.57. The value for `CCC(C)=O` [butanone] + C[n+]1ccn(CCCB(O)O)c1.[Br-] was 21.8 ± 1.5.

For the compound `c1ccccc1` [benzene] + CCCCCCCC[n+]1ccn(CCCB(O)O)c1.[Br-], the activity coefficient amounted to 1.84 ± 0.12. Consider `CC#N` [acetonitrile] + CCCCCCCCCC[n+]1ccn(CCCB(O)O)c1.[Br-], for which the activity coefficient stood at 0.95 ± 0.06.
